Laboratory results reported in patent publication US20260250250A1, “3-(SULPHONYL OR SULFONIMIDOYL)PROP-2-EN-1-YL]-2-OXO-1,2-DIHYDROPYRIDINE-3-CARBOXAMIDE DERIVATIVES” (Flinder Therapeutics B.V., priority 2022, published 2026).
pIC50: −log10 of the molar value.

Columns and labels:
[1] = biological target: T1, human E3 ubiquitin-protein ligase RNF31 (HOIP) (Homo sapiens, UniProt Q96EP0); experiment: Cell-free HTRF-based HOIP inhibition assay; format: biochemical
T1 sequence (Q96EP0 695-1072 limits assumed): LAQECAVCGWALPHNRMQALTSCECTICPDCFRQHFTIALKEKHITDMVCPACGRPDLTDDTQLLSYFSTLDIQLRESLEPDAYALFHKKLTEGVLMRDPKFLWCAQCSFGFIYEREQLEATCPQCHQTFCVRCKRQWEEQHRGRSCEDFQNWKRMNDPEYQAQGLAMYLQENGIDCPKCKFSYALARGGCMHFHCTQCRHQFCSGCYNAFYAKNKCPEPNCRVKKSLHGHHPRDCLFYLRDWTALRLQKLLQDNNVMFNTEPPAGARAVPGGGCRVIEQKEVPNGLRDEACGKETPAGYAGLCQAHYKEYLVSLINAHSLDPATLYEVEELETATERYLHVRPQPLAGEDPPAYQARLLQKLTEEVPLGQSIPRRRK
Method: This assay was performed in the following steps: • a) synthesis of recombinant fragment of human E3 ubiquitin-protein ligase RNF31 (HOIP), expressed with purity >90% in E. coli system (the protein was prepared as 1 mg/mL stock in a standard formulation); • b) incubation of the compounds in a typical concentration range: 100-0.005 μM, at a final DMSO conc. 1% with a mixture of HOIP and ubiquitin activating enzyme E1 at 25° C., for 1 h at 25° C.; • c) followed by addition of a ubiquitination solution including E2 and substrates (the reaction proceeds for 2.5 h at 25° C.); and • d) HTRF detection was performed using a PHERAstar FSX (BMG Labtech) plate reader (excitation at 337 nm, dual emissions at 665 and 620 nm).

[2] = test system: bladder carcinoma RT4 cell line; experiment: TNF-α-induced cytotoxicity assay (CellTiter-Glo viability); format: cell-based; details: Homo sapiens, RT-4, 72 h
Method: A viability assay, using bladder carcinoma RT4 cell line, was used for identifying the potential inhibitory effect of tested compounds on HOIP activity. The viability was determined by CellTiter-Glo Luminescent Cell Viability Assay (G7571, Promega) which measures the ability of generating a luminescent signal proportional to the amount of ATP present in living cells. The assay consists of a few steps: • a) the cells were routinely sub cultivated twice a week with standard complete growth medium composition; • b) cells were preparated for the assay by creating a cell suspension at the density of 0.05 mln cells/mL and dispensed into plates (ViewPlate-384, PerkinElmer) resulting in 1000 cells/well; • c) cells were stimulated with 1.25 ng/mL TNFα and with compounds and incubated for 72 h at 37° C. in the atmosphere with 5% CO2; and • d) for detection cytotoxicity was measured with CellTiter-Glo® Luminescent Cell Viability Assay based on the method described by the manufacturer.

| pIC50 [1] | Compound | pIC50 [2] |
| --- | --- | --- |
| ≥ 5.00 | O=C(NC/C=C/S(=O)(=O)c1ccccc1)c1cc2c([nH]c1=O)CCN(C(=O)C1CCC(F)(F)CC1)C2 [Example 108, N-[(2E)-3-(benzenesulfonyl)prop-2-en-1-yl]-6-(4,4-difluorocyclohexanecarbonyl)-2-oxo-1,2,5,6,7,8-hexahydro-1,6-naphthyridine-3-carboxamide] |  |
| ≥ 5.00 | N#CC1(C(=O)N2CCc3[nH]c(=O)c(C(=O)NC/C=C/S(=O)(=O)c4ccccc4)cc3C2)CCC1 [Example 111, N-[(2E)-3-(benzenesulfonyl)prop-2-en-1-yl]-6-(1-cyanocyclobutanecarbonyl)-2-oxo-1,2,5,6,7,8-hexahydro-1,6-naphthyridine-3-carboxamide] |  |
| ≥ 6.00 | O=C(NC/C=C/S(=O)(=O)c1ccccc1)c1cc2c([nH]c1=O)CCN(C(=O)C1CCN(c3ccccc3)C1)C2 (stereo not shown) [Example 118, N-[(2E)-3-(benzenesulfonyl)prop-2-en-1-yl]-2-oxo-6-(1-phenylpyrrolidine-3-carbonyl)-1,2,5,6,7,8-hexahydro-1,6-naphthyridine-3-carboxamide] |  |
| ≥ 5.00 | COC(C)(C)CC(=O)N1CCc2[nH]c(=O)c(C(=O)NC/C=C/S(=O)(=O)c3ccccc3)cc2C1 [Example 124, N-[(2E)-3-(benzenesulfonyl)prop-2-en-1-yl]-6-(3-methoxy-3-methylbutanoyl)-2-oxo-1,2,5,6,7,8-hexahydro-1,6-naphthyridine-3-carboxamide] |  |
| ≥ 6.00 | O=C(NC/C=C/S(=O)(=O)c1ccccc1Cl)c1cc(-c2ccccc2)c[nH]c1=O [Example 129, N-[(2E)-3-(2-chlorobenzenesulfonyl)prop-2-en-1-yl]-2-oxo-5-phenyl-1,2-dihydropyridine-3-carboxamide] | ≥ 5.00 |
| ≥ 5.00 | O=C(NC/C=C/S(=O)(=O)c1ccc(Cl)cc1)c1cc(-c2ccccc2)c[nH]c1=O [Example 130, N-[(2E)-3-(4-chlorobenzenesulfonyl)prop-2-en-1-yl]-2-oxo-5-phenyl-1,2-dihydropyridine-3-carboxamide] |  |
| ≥ 7.00 | N=S(=O)(/C=C/CNC(=O)c1cc2c([nH]c1=O)CCCC2)c1ccc(C(F)(F)F)cc1 (stereo not shown) [Example 154, N-[(2E)-3-[imino(oxo)[4-(trifluoromethyl)phenyl]-λ^6-sulfanyl]prop-2-en-1-yl]-2-oxo-1,2,5,6,7,8-hexahydroquinoline-3-carboxamide] | ≥ 6.00 |
| ≥ 5.00 | COc1ccc(S(=N)(=O)/C=C/CNC(=O)c2cc3c([nH]c2=O)C(C)(C)CCC3)cc1F (stereo not shown) [Example 155, N-[(2E)-3-[(3-fluoro-4-methoxyphenyl)(imino)oxo-λ^6-sulfanyl]prop-2-en-1-yl]-8,8-dimethyl-2-oxo-1,2,5,6,7,8-hexahydroquinoline-3-carboxamide] | ≥ 5.00 |
| ≥ 7.00 | N=S(=O)(/C=C/CNC(=O)c1cc2c([nH]c1=O)CCCC2)c1ccc(-c2ccccc2)cc1 (stereo not shown) [Example 156, N-[(2E)-3-({[1,1′-biphenyl]-4-yl}(imino)oxo-λ^6-sulfanyl)prop-2-en-1-yl]-2-oxo-1,2,5,6,7,8-hexahydroquinoline-3-carboxamide] | ≥ 6.00 |
| ≥ 5.00 | N=S(=O)(/C=C/CNC(=O)c1cc2c([nH]c1=O)CCCC2)Cc1ccccc1 (stereo not shown) [Example 157, N-[(2E)-3-[benzyl(imino)oxo-λ^6-sulfanyl]prop-2-en-1-yl]-2-oxo-1,2,5,6,7,8-hexahydroquinoline-3-carboxamide] |  |
| ≥ 6.00 | COc1ccc(S(=N)(=O)/C=C/CNC(=O)c2cc3cccnc3[nH]c2=O)cc1F (stereo not shown) [Example 158, N-[(2E)-3-[(3-fluoro-4-methoxyphenyl)(imino)oxo-λ^6-sulfanyl]prop-2-en-1-yl]-2-oxo-1,2-dihydro-1,8-naphthyridine-3-carboxamide] | ≥ 5.00 |
| ≥ 6.00 | COc1ccc(S(=N)(=O)/C=C/CNC(=O)c2cc3cnccc3[nH]c2=O)cc1F (stereo not shown) [Example 159, N-[(2E)-3-[(3-fluoro-4-methoxyphenyl)(imino)oxo-λ^6-sulfanyl]prop-2-en-1-yl]-2-oxo-1,2-dihydro-1,6-naphthyridine-3-carboxamide] | ≥ 4.00 |
| ≥ 6.00 | N=S(=O)(/C=C/CNC(=O)c1cc2c([nH]c1=O)CCCC2)c1ccc(N2CCOCC2)cc1 (stereo not shown) [Example 160, N-[(2E)-3-{imino[4-(morpholin-4-yl)phenyl]oxo-λ^6-sulfanyl}prop-2-en-1-yl]-2-oxo-1,2,5,6,7,8-hexahydroquinoline-3-carboxamide] | ≥ 6.00 |
| ≥ 6.00 | N=S(=O)(/C=C/CNC(=O)c1cc2c([nH]c1=O)CCCC2)c1ccc(N2CCCCC2=O)cc1 (stereo not shown) [Example 176, N-[(2E)-3-[imino(oxo)[4-(2-oxopiperidin-1-yl)phenyl]-λ^6-sulfanyl]prop-2-en-1-yl]-2-oxo-1,2,5,6,7,8-hexahydroquinoline-3-carboxamide] |  |

Continued, compound first:

| Compound | pIC50 [1] | pIC50 [2] |
| --- | --- | --- |
| CC(=O)N1CCc2[nH]c(=O)c(C(=O)NC/C=C/S(=O)(=O)c3ccccc3)cc2C1 [Example 13, 6-acetyl-N-[(2E)-3-(benzenesulfonyl)prop-2-en-1-yl]-2-oxo-1,2,5,6,7,8-hexahydro-1,6-naphthyridine-3-carboxamide] | ≥ 5.00 |  |
| CC(/C=C/S(=O)(=O)c1ccccc1)NC(=O)c1cc2c([nH]c1=O)CCCC2 (stereo not shown) [Example 14, N-[(3E)-4-(benzenesulfonyl)but-3-en-2-yl]-2-oxo-1,2,5,6,7,8-hexahydroquinoline-3-carboxamide] | ≥ 4.00 |  |
| CS(=O)(=O)/C=C/CNC(=O)c1cc2c([nH]c1=O)CCCC2 [Example 15, N-[(2E)-3-methanesulfonylprop-2-en-1-yl]-2-oxo-1,2,5,6,7,8-hexahydroquinoline-3-carboxamide] | ≥ 5.00 |  |
| O=C(NC/C=C/S(=O)(=O)C1CCCC1)c1cc2c([nH]c1=O)CCCC2 [Example 17, N-[(2E)-3-(cyclopentanesulfonyl)prop-2-en-1-yl]-2-oxo-1,2,5,6,7,8-hexahydroquinoline-3-carboxamide] | ≥ 5.00 |  |
| CC(C)S(=O)(=O)/C=C/CNC(=O)c1cc2c([nH]c1=O)CCCC2 [Example 18, 2-oxo-N-[(2E)-3-(propane-2-sulfonyl)prop-2-en-1-yl]-1,2,5,6,7,8-hexahydroquinoline-3-carboxamide] | ≥ 5.00 |  |
| CC(C)S(=O)(=O)/C=C\CNC(=O)c1cc2c([nH]c1=O)CCCC2 [Example 20, 2-oxo-N-[(2Z)-3-(propane-2-sulfonyl)prop-2-en-1-yl]-1,2,5,6,7,8-hexahydroquinoline-3-carboxamide] | ≥ 4.00 |  |
| CC(C)(C)S(=O)(=O)/C=C/CNC(=O)c1cc2c([nH]c1=O)CCCC2 [Example 23, N-[(2E)-3-(2-methylpropane-2-sulfonyl)prop-2-en-1-yl]-2-oxo-1,2,5,6,7,8-hexahydroquinoline-3-carboxamide] | ≥ 4.00 |  |
| COc1ccc(S(=O)(=O)/C=C/CNC(=O)c2cc3c([nH]c2=O)CCCCC3)cc1F [Example 37, N-[(2E)-3-(3-fluoro-4-methoxybenzenesulfonyl)prop-2-en-1-yl]-2-oxo-1H,2H,5H,6H,7H,8H,9H-cyclohepta[b]pyridine-3-carboxamide] | ≥ 5.00 |  |
| O=C(NC/C=C/S(=O)(=O)c1ccccc1)c1cc2c([nH]c1=O)CCN(C(=O)C1CC(F)(F)C1)C2 [Example 102, N-[(2E)-3-(benzenesulfonyl)prop-2-en-1-yl]-6-(3,3-difluorocyclobutanecarbonyl)-2-oxo-1,2,5,6,7,8-hexahydro-1,6-naphthyridine-3-carboxamide] | ≥ 5.00 |  |
| COCCC(=O)N1CCc2[nH]c(=O)c(C(=O)NC/C=C/S(=O)(=O)c3ccccc3)cc2C1 [Example 105, N-[(2E)-3-(benzenesulfonyl)prop-2-en-1-yl]-6-(3-methoxypropanoyl)-2-oxo-1,2,5,6,7,8-hexahydro-1,6-naphthyridine-3-carboxamide] | ≥ 6.00 |  |
| O=C(NC/C=C/S(=O)(=O)c1ccccc1)c1cc2c([nH]c1=O)CCN(C(=O)CC13CC4CC(CC(C4)C1)C3)C2 [Example 106, 6-[2-(adamantan-1-yl)acetyl]-N-[(2E)-3-(benzenesulfonyl)prop-2-en-1-yl]-2-oxo-1,2,5,6,7,8-hexahydro-1,6-naphthyridine-3-carboxamide] | ≥ 6.00 | ≥ 5.00 |
| N=S(=O)(/C=C/CNC(=O)c1cc2c([nH]c1=O)CCCC2)c1ccc(N2CCCCC2)cc1 (stereo not shown) [Example 161, N-[(2E)-3-[imino(oxo)[4-(piperidin-1-yl)phenyl]-λ^6-sulfanyl]prop-2-en-1-yl]-2-oxo-1,2,5,6,7,8-hexahydroquinoline-3-carboxamide] |  | ≥ 6.00 |
